Assay results as given in US10669240B2, “5-substituted indazole-3-carboxamides and preparation and use thereof” (Samumed, LLC, priority 2014, dated 2020).

Tests used:
[1] = tested on: Wnt activity (Wnt-responsive SP5 promoter luciferase reporter in SW480 cells); experiment: Wnt activity reporter assay: SW480 cells with SP5 promoter-driven firefly luciferase; format: cell-based; conditions: Homo sapiens, 24 h after compound addition, read-out: Wnt inhibition
Text: The above synthesized compounds were screened using the assay procedure for Wnt activity described below.
Reporter cell lines were generated by stably transducing cells of cancer cell lines (e.g., colon cancer) with a lentiviral construct that include a Wnt-responsive promoter driving expression of the firefly luciferase gene.
Lentiviral constructs were made in which the SP5 promoter, a promoter having eight TCF/LEF binding sites derived from the SP5 promoter, was linked upstream of the firefly luciferase gene. The lentiviral constructs included a hygromycin resistance gene as a selectable marker. The SP5 promoter construct was used to transduce SW480 cells, a colon cancer cell line having a mutated APC gene that generates a truncated APC protein, leading to de-regulated accumulation of β-catenin.
Cultured SW480 cells bearing a reporter construct were distributed at approximately 10,000 cells per well into 384 well multiwell plates. Compounds were then added to the wells in half-log dilutions using a three micromolar top concentration. A series of control wells for each cell type received only buffer and compound solvent. Twenty-four hours after the addition of compound, reporter activity for luciferases was assayed, for example, by addition of the BrightGlo luminescence reagent (Promega) and the Victor3 plate reader (Perkin Elmer). Readings were normalized to DMSO only treated cells, and normalized activities were then used for the IC50 calculations.

[2] = target: DYRK1A (Homo sapiens (Human), UniProt Q13627); experiment: DYRK1A activity Tau assay: pSer396 Tau in SH-SY5Y cells by ELISA / western blot; format: cell-based; conditions: overnight (16-18 h) exposure
Text: In another example, in vitro assays for DYRK1A biological activity may be used, e.g. regulation of microtubule-associated protein tau (MAPT/Tau) phosphorylation in neuronal cell line such as the human SH-SY5Y neuroblastoma cell line. Assays for DYRK1a-regulated level of phosphorylation can include monitoring levels of basal pSer396 Tau, which can be measured, for example, by serial dilutions of a candidate inhibitor composition using a ten micromolar top concentration and detected by ELISA or Western Blotting. An exemplary assay for DYRK-1a-regulated phosphorylation uses the SH-SY5Y cells cultured in a 96 well plate format for a period of time sufficient to stabilize microtubules and Tau phosphorylation, usually at least 2 days, then treated with a 1/3 serial dilution of compounds overnight and lysed. The cell lysate is resolved by SDS PAGE, then transferred to nitrocellulose and probed with an antibody specific for pSer396 Tau.
In a further example, the activity of a candidate compound can be measured by ELISA by adding the lysate mentioned above onto total Tau-coated plates and detected with a specific pSer396 antibody.

Row | SMILES | IC50 [1] [nM] | EC50 [2] [nM]
1 | O=C(NC1CCC1)c1n[nH]c2ccc(-c3cccnc3)cc12 [Compound 5, N-Cyclobutyl-5-(pyridin-3-yl)-1H-indazole-3-carboxamide] | 11900 | 18
2 | O=C(NC1CC1)c1n[nH]c2ccc(-c3cccnc3)cc12 [Compound 6, N-Cyclopropyl-5-(pyridin-3-yl)-1H-indazole-3-carboxamide] | 5530 | 22
3 | CC(C)CN1CC(NC(=O)c2n[nH]c3ccc(-c4cncc(Cl)c4)cc23)C1 [Compound 1273, 5-(5-Chloropyridin-3-yl)-N-(1-isobutylazetidin-3-yl)-1H-indazole-3-carboxamide] | 3300 | 23
4 | O=C(Nc1cc(CN2CCCC2)ccc1Cl)c1n[nH]c2ccc(-c3cccnc3)cc12 [Compound 1333, N-(2-Chloro-5-(pyrrolidin-1-ylmethyl)phenyl)-5-(pyridin-3-yl)-1H-indazole-3-carboxamide] | 5100 | 9
5 | O=C(NCc1cc(F)cc(F)c1)c1n[nH]c2ccc(-c3cncc(CN4CCCCC4)c3)cc12 [Compound 28, N-(3,5-Difluorobenzyl)-5-(5-(piperidin-1-ylmethyl)pyridin-3-yl)-1H-indazole-3-carboxamide] | 3100 | 2
6 | O=C(NC1CCN(CCF)CC1)c1n[nH]c2ccc(-c3cccc(F)c3F)cc12 [Compound 1160, 5-(2,3-Difluorophenyl)-N-(1-(2-fluoroethyl)piperidin-4-yl)-1H-indazole-3-carboxamide] | 1100 | 40
7 | NC1CN(c2cncc(-c3ccc4[nH]nc(C(=O)Nc5cccc(F)c5)c4c3)n2)C1 [Compound 1318, 5-(6-(3-Aminoazetidin-1-yl)pyrazin-2-yl)-N-(3-fluorophenyl)-1H-indazole-3-carboxamide] | 4000 | 6
8 | O=C(NC1(c2ccccc2)CC1)c1n[nH]c2ccc(-c3cncc(CN4CCC4)c3)cc12 [Compound 33, 5-(5-(Azetidin-1-ylmethyl)pyridin-3-yl)-N-(1-phenylcyclopropyl)-1H-indazole-3-carboxamide] | 6700 | 63
9 | CN1CC(NC(=O)c2n[nH]c3ccc(-c4cccc(F)c4F)cc23)C1 [Compound 1272, 5-(2,3-Difluorophenyl)-N-(1-methylazetidin-3-yl)-1H-indazole-3-carboxamide] | 2200 | 56
10 | CN1CCC(NC(=O)c2n[nH]c3ccc(-c4cncc(C(F)(F)F)c4)cc23)CC1 [Compound 95, N-(1-Methylpiperidin-4-yl)-5-(5-(trifluoromethyl)pyridin-3-yl)-1H-indazole-3-carboxamide] | 1070 | 261
11 | CN1CCC(NC(=O)c2n[nH]c3ccc(-c4cc(F)cc(F)c4)cc23)CC1 [Compound 21, 5-(3,5-Difluorophenyl)-N-(1-methylpiperidin-4-yl)-1H-indazole-3-carboxamide] | 1310 | 744
12 | O=C(N[C@@H]1C[C@@H]1c1ccccc1)c1n[nH]c2ccc(-c3cccnc3)cc12 [Compound 38, N-((1R,2R)-2-Phenylcyclopropyl)-5-(pyridin-3-yl)-1H-indazole-3-carboxamide] | 1570 | 4
13 | NC(=O)c1n[nH]c2ccc(-c3cncc(CN4CCCCC4)c3)cc12 [Compound 89, 5-(5-(Piperidin-1-ylmethyl)pyridin-3-yl)-1H-indazole-3-carboxamide] | 1960 | 6
14 | O=C(Nc1ccc(CN2CCCC2)cc1)c1n[nH]c2ccc(-c3cncc(F)c3)cc12 [Compound 1329, 5-(5-Fluoropyridin-3-yl)-N-(4-(pyrrolidin-1-ylmethyl)phenyl)-1H-indazole-3-carboxamide] | 1700 | 1
15 | O=C(N[C@@H]1C[C@@H]1c1ccccc1)c1n[nH]c2ccc(-c3cncc(CN4CCCCC4)c3)cc12 [Compound 39, N-((1R,2R)-2-Phenylcyclopropyl)-5-(5-(piperidin-1-ylmethyl)pyridin-3-yl)-1H-indazole-3-carboxamide] | 490 | 1
16 | CC(C)OCCCNC(=O)c1n[nH]c2ccc(-c3cccnc3)cc12 [Compound 1261, N-(3-Isopropoxypropyl)-5-(pyridin-3-yl)-1H-indazole-3-carboxamide] | 1000 | 5
17 | CC(C)(C)CN1CCC(NC(=O)c2n[nH]c3cc(F)c(-c4cccnc4)cc23)CC1 [Compound 1342, 6-Fluoro-N-(1-neopentylpiperidin-4-yl)-5-(pyridin-3-yl)-1H-indazole-3-carboxamide] | 1400 | 13

Row | SMILES | IC50 [1] [nM] | EC50 [2] [nM]
18 | O=C(Nc1ccccn1)c1n[nH]c2ccc(-c3cncc(CN4CCCCC4)c3)cc12 [Compound 56, 5-(5-(Piperidin-1-ylmethyl)pyridin-3-yl)-N-(pyridin-2-yl)-1H-indazole-3-carboxamide] | 1100 | 3
19 | CCN1CCC(NC(=O)c2n[nH]c3cc(F)c(-c4cncc5ccccc45)cc23)CC1 [Compound 1293, N-(1-Ethylpiperidin-4-yl)-6-fluoro-5-(isoquinolin-4-yl)-1H-indazole-3-carboxamide] | 2130 | 210
20 | O=C(NC1CCN(CCF)CC1)c1n[nH]c2ccc(-c3cncc4ccccc34)cc12 [Compound 1297, N-(1-(2-Fluoroethyl)piperidin-4-yl)-5-(isoquinolin-4-yl)-1H-indazole-3-carboxamide] | 2200 | 30
21 | O=C(NC1CC1)c1n[nH]c2ccc(-c3cc(F)cc(CN4CCCCC4)c3)cc12 [Compound 11, N-Cyclopropyl-5-(3-fluoro-5-(piperidin-1-ylmethyl)phenyl)-1H-indazole-3-carboxamide] | 7950 | 36
22 | O=C(Nc1cccc2cccnc12)c1n[nH]c2ccc(-c3cncc(CN4CCCCC4)c3)cc12 [Compound 81, 5-(5-(Piperidin-1-ylmethyl)pyridin-3-yl)-N-(quinolin-8-yl)-1H-indazole-3-carboxamide] | 7660 | 312
23 | CN1CCC(NC(=O)c2n[nH]c3ccc(-c4cccnc4)cc23)CC1 [Compound 1, N-(1-Methylpiperidin-4-yl)-5-(pyridin-3-yl)-1H-indazole-3-carboxamide] | 1300 | 65
24 | CN1CCC(NC(=O)c2n[nH]c3ccc(-c4cnccc4C(F)(F)F)cc23)CC1 [Compound 1340, N-(1-Methylpiperidin-4-yl)-5-(4-(trifluoromethyl)pyridin-3-yl)-1H-indazole-3-carboxamide] | 1800 | 2500
25 | CC(C)(C)CN1CCC(NC(=O)c2n[nH]c3ccc(-c4cccnc4)cc23)CC1 [Compound 329, N-(1-Neopentylpiperidin-4-yl)-5-(pyridin-3-yl)-1H-indazole-3-carboxamide] | 4650 | 7
26 | O=C(NC1CCNCC1)c1n[nH]c2ccc(-c3cccc(F)c3F)cc12 [Compound 254, 5-(2,3-Difluorophenyl)-N-(piperidin-4-yl)-1H-indazole-3-carboxamide] | 7900 | 66
27 | CN1CCC(NC(=O)c2n[nH]c3ccc(-c4ccc(F)c(F)c4)cc23)CC1 [Compound 19, 5-(3,4-Difluorophenyl)-N-(1-methylpiperidin-4-yl)-1H-indazole-3-carboxamide] | 6800 | 848
28 | O=C(NC1CC1)c1n[nH]c2ccc(-c3cncc(CN4CCCCC4)c3)cc12 [Compound 9, N-Cyclopropyl-5-(5-(piperidin-1-ylmethyl)pyridin-3-yl)-1H-indazole-3-carboxamide] | 2910 | 2
29 | O=C(Nc1ccc(CN2CCCC2)cc1)c1n[nH]c2ccc(-c3cccc(F)c3F)cc12 [Compound 1327, 5-(2,3-Difluorophenyl)-N-(4-(pyrrolidin-1-ylmethyl)phenyl)-1H-indazole-3-carboxamide] | 1500 | 31
30 | CC(C)CN1CC(NC(=O)c2n[nH]c3ccc(-c4cncc(C(F)F)c4)cc23)C1 [Compound 1274, 5-(5-(Difluoromethyl)pyridin-3-yl)-N-(1-isobutylazetidin-3-yl)-1H-indazole-3-carboxamide] | 1200 | 20
31 | CN1CCC(NC(=O)c2n[nH]c3ccc(-c4ccccc4F)cc23)CC1 [Compound 16, 5-(2-Fluorophenyl)-N-(1-methylpiperidin-4-yl)-1H-indazole-3-carboxamide] | 14600 | 335
32 | O=C(NC1CCCCC1)c1n[nH]c2ccc(-c3cccnc3)cc12 [Compound 4, N-Cyclohexyl-5-(pyridin-3-yl)-1H-indazole-3-carboxamide] | 4460 | 35
33 | O=C(Nc1ncc(F)cc1F)c1n[nH]c2ccc(-c3cncc(CN4CCCCC4)c3)cc12 [Compound 58, N-(3,5-Difluoropyridin-2-yl)-5-(5-(piperidin-1-ylmethyl)pyridin-3-yl)-1H-indazole-3-carboxamide] | 4010 | 3
34 | O=C(NCc1ccccc1)c1n[nH]c2ccc(-c3cc(F)cc(CN4CCCCC4)c3)cc12 [Compound 29, N-Benzyl-5-(3-fluoro-5-(piperidin-1-ylmethyl)phenyl)-1H-indazole-3-carboxamide] | 3470 | 117
